Reference: US8603965B2, “Pharmaceutical composition for the prophylaxis and treatment of HIV infection and its use” (priority 2006, dated 2013)
Where “and” joins values, the source holds several entries; their conditions need not be identical. Equal entries are not always repeated. Entries after “also recorded” stand apart in the source; their conditions may differ. Where two headings read alike, the source gives them in different places. Ends that are not written are not given here.

Experiments:
[1] = Half-life of FS-01 in HIV patient; conditions: human, in vivo, subcutaneous, 20 mg
Procedure: (§1) Nineteen HIV patients were divided into two groups, were subcutaneously injected with pharmaceutical composition containing 10 mg and 20 mg of FS-01 once daily, for 28 days. The data was analyzed together with that in Example 4.
It has been shown in the result that the pharmaceutical composition of the present invention has good safety profile. […] Plasma viral load in HIV infected patient with baseline less than <10,000 c/ml decreased by 1.2 log in 20 mg group 14 days after administration (see FIG. 3). And it is recommended for infected patient with baseline viral load more than 10,000 c/ml to receive combination treatment with other antiviral agents, such as antiretroviral inhibitors or protease inhibitors.

HIV [2] = assay: Multidose subcutaneous injection once daily for 28 days in HIV positive patients (Example 5); type: in vivo, human; conditions: 10 mg and 20 mg once daily
Procedure: as §1

HIV [3] = assay: Multidose subcutaneous injection once daily for 14 days in HIV positive patients (Example 4); type: in vivo, human; conditions: 1-30 mg once daily
Procedure: Twenty-one subjects were divided into 5 groups, received pharmaceutical composition containing 1 mg, 5 mg, 10 mg, 20 mg, 30 mg FS-01 once daily, for 14 days. Determined the viral load before injection and after injection.

[4] = Pharmacokinetic study of single subcutaneous injection of pharmaceutical composition containing FS-01 in healthy volunteers; type: in vivo, human
Procedure: 3-period crossover Latin square design was employed, 12 subjects were randomly divided into three groups, four subjects per group, and were sequentially abdomenal and subcutaneously injected by pharmaceutical composition containing 10, 20, 30 mg of FS-01, doses are listed in Table 2. Blood samples were collected at 30-5 min pre-dose, 5, 15, 30 min, 1, 2, 4, 6, 8, 12, 24, 48 and 72 h after injection. The concentration of FS-01 in blood sample was quantitatively analyzed by LC\MS\MS.

[5] = Pharmacokinetic study of single subcutaneous or intravenous injection of FS-01 in rhesus monkey; type: in vivo; conditions: 1.2 mg/kg
Procedure: Detailed experiment method as follows: three rhesus monkeys, crossover design, with a washout period of more than two weeks. Rhesus monkey was administrated 1.2 mg/kg of FS-01 by subcutaneously or intravenously injection, 1 ml of blood sample were collected at different point of time (0, 1, 5, 15, 30 min, 1, 2, 4, 6, 8, 12, 24 and 48 h). Drug concentration at different time point in blood sample was quantitatively analyzed by LC\MS\MS, utilizing iodine labeled FS-01 as internal standard, C18 column, aqueous solution containing 0.1% TFA and acetonitrile as mobile phase. Pharmacokinetics analysis was carried out according to fitting model based on the concentration of FS-01, determined the half-life (T1/2) in plasma, bioavailability and other pharmacokinetics parameters (FIG. 1).

HIV [6] = conditions: HIV fusion assay; cited from earlier work
[7] = healthy volunteers, 10, 20, 30 mg
[8] = plasma, 24 h, read-out: C24 (plasma concentration at 24 h)

Substance	half-life [1]	side effects / safety profile (HIV [2])	side effects (HIV [3])	clearance rate as dose increases [4, 7]	pharmacokinetic process (linearity) [4, 7]	plasma drug concentration after 72 hours ([4]; healthy volunteers, 72 hours after dosing)	Cmax ([4]; human, plasma, sc, 10 mg, healthy volunteers, 10 mg (low dose), single subcutaneous injection)	Cmax ([4]; human, plasma, sc, 20 mg, healthy volunteers, 20 mg (middle dose), single subcutaneous injection)	Cmax ([4]; human, plasma, sc, 30 mg, healthy volunteers, 30 mg (high dose), single subcutaneous injection)	half-life ([4]; human, plasma, sc, healthy volunteers, single subcutaneous injection)	Tmax [5]	Cmax ([5]; plasma)	level at 24 h [5, 8]	level at time molar at 24 h [5, 8]	Tmax ([5]; plasma, read-out: Tmax)	half-life ([5]; plasma, subcutaneous or intravenous injection)	bioavailability ([5]; plasma, subcutaneous or intravenous injection, read-out: bioavailability (BA))	EC50 relative to T-20 (HIV [6])
Ac-SWETWEREIENYTRQIYRILEESQEQQDRNERDLLE-NH2 [FS-01]	39 h	No signs of substantial side effects	No signs of substantial side effects	did not slow down; also recorded: did not decrease	linear pattern; also recorded: linear relation	approaching baseline; also recorded: approached to baseline	104 ng/mL and 22 nM	213 ng/mL and 45.1 nM	250 ng/mL and 52.9 nM	20 ± 18.6 h	0.25 h-2 h	508 ng/mL and 108 nM	> 9.8 ng/mL	> 2.07 nM	0.25 to 2 h	8.13 ± 3.1 h	50%	
X-SWETWEREIENYTKQIYKILEESQEQQDRNEKDLLE-Z (not fully specified (N-terminus, C-terminus); printed as X-SWETWEREIENYTKQIYKILEESQEQQDRNEKDLLE-Z)																		20 times lower than T-20
